Source: patent US20250304537A1 (Repare Therapeutics Inc., priority 2022, published 2025)
pIC50: −log10 of the molar value. Like-named read-outs stand apart in the source and are kept apart here.

Tests used:
[1] = target: recombinant human Myt1 (full length PKMYT1) (Homo sapiens (Human), UniProt Q99640); assay: Recombinant human Myt1 kinase assay (ADP-Glo); assay type: biochemical; settings: 10 μM ATP
Procedure, shortened: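 Full-length insect-cell-expressed human Myt1 (18 nM final) was preincubated with compound (0.5% DMSO) for 15 min at 22 °C. The reaction ran with 10 μM ATP for 60 min at 30 °C in HEPES buffer with Mg2+/Mn2+ and DTT. ADP formed was read by ADP-Glo luminescence, giving IC50 and % max inhibition.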

[2] = system: PKMYT1 (CDK1 pThr14) in FUOV1 cells; assay: PKMYT1 cell-based activity assay, CDK1 pThr14 AlphaLISA in FUOV1 cells; settings: read-out: FUOV-1 CDK1 pThr14 IC50
Procedure, shortened: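 FUOV1 cells were treated with PKMYT1 inhibitor for 2 h at 37 °C, then lysed. CDK1 pThr14 was measured by AlphaLISA, pairing an anti-pThr14 antibody with an anti-total CDK1 antibody (5 nM each). Signal read at 680/615 nm and used to derive IC50.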

recombinant human Myt1 (full length PKMYT1), sequence (Q99640 whole entry): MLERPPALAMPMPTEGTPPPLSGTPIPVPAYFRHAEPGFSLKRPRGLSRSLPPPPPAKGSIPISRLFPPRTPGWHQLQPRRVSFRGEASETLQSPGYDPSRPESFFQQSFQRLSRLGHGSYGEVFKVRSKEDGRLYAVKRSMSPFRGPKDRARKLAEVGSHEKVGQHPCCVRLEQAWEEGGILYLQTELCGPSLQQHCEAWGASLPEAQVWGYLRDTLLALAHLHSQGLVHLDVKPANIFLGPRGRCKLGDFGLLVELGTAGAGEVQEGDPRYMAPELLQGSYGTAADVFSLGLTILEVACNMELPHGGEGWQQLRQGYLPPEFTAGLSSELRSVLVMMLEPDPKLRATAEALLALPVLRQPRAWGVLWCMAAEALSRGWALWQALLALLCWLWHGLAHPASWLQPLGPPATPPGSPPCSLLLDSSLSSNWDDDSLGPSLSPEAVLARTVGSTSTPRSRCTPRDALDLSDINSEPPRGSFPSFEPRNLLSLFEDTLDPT

SMILES	pIC50 [1]	pIC50 ([2]; 2 h, 2 h compound incubation)	pIC50 ([2]; 2 h, 2 h incubation)	pIC50 ([2]; 2 h incubation)	pIC50 ([2]; 2 h, 2 hours with compound)
Cc1ccc2[nH]ncc2c1-c1nc(-c2ccccc2NCC(F)(F)F)cc(C(N)=O)c1N [Compound 413]	8.30	6.74			
Cc1ccc2[nH]ncc2c1-c1nc(-c2cccnc2N[C@@H]2CCO[C@H](C)C2)nc(C(N)=O)c1N [Compound 603]	8.40	7.60			
Cc1ccc2[nH]ncc2c1-c1nc(-c2ccccc2N[C@@H](C)C(F)(F)F)nc(C(N)=O)c1N [Compound 429]	8.40	7.44			
Cc1ccc2[nH]ncc2c1-c1nc(-c2ccccc2)nc(C(N)=O)c1N [Compound 65]	7.66		5.97		
Cc1ccc2[nH]ncc2c1-c1cc(-c2cccc(OCCN3CCOCC3)n2)nc(C(N)=O)c1N [Compound 185]	8.15		6.43		
Cc1ccc(O)c(C)c1-c1cc(-c2cncnc2)nc(C(N)=O)c1N [Compound 71]	8.05		6.53		
NC(=O)c1nc(-c2ccccc2)nc(-c2cccc3[nH]ncc23)c1N [Compound 68]	7.30		< 5.00		
NC(=O)c1nc(-c2ccccc2)nc(-c2ccc(F)c3[nH]ncc23)c1N [Compound 121]	7.31		< 5.00		
Cc1ccc2[nH]ncc2c1-c1cc(-c2cccc(OCc3nccn3C)n2)nc(C(N)=O)c1N [Compound 249]	8.30		7.07		
Cc1ccc2[nH]ncc2c1-c1cc(-c2ccnnc2)nc(C(N)=O)c1N [Compound 95]	7.80		5.77		
Cc1ccc2[nH]ncc2c1-c1cc(-c2ccnc(OCCc3ccn(C)n3)n2)nc(C(N)=O)c1N [Compound 312]	8.05		6.22		
Cc1ccc2[nH]ncc2c1-c1cc(-c2cccc(Oc3cccc(N4CCCC4)c3)n2)nc(C(N)=O)c1N [Compound 182]	7.82		5.80		
Cc1ccc(O)c(C)c1-c1cc(-c2nc3ccccc3o2)nc(C(N)=O)c1N [Compound 56]	8.15		6.43		
Cc1ccc2[nH]ncc2c1-c1cc(-c2ccnc(OC3CCOC3)n2)nc(C(N)=O)c1N (centres unmarked) [Compound 212]	7.92		6.72		
Cc1ccnc(Nc2cc(F)ccc2-c2nc(C(N)=O)c(N)c(-c3c(C)ccc4[nH]ncc34)n2)c1 [Compound 616]	7.96	6.72			
COc1cc(C)cc(-c2nc(C(N)=O)c(N)c(-c3c(C)ccc4[nH]ncc34)n2)c1 [Compound 143]	7.64		5.83		
Cc1ccc2[nH]ncc2c1-c1cc(-c2cccc(OCc3ccnnc3)n2)nc(C(N)=O)c1N [Compound 326]	8.30		6.87		
Cc1ccc(O)c(C)c1-c1cc(-c2ccnc(N)c2)nc(C(N)=O)c1N [Compound 45]	8.70			7.22	
Cc1ccc(O)c(C)c1-c1cc(-c2nc3ccccc3s2)nc(C(N)=O)c1N [Compound 58]	8.30			6.41	
Cc1ccc2[nH]ncc2c1-c1cc(-c2ccnc(OC3COC3)n2)nc(C(N)=O)c1N [Compound 161]	8.15		6.91		
Cc1ccc2[nH]ncc2c1-c1nc(-c2ccncc2)nc(C(N)=O)c1N [Compound 100]	7.57		5.91		
Cc1ccc2[nH]ncc2c1-c1nc(-c2cc(F)cnc2N[C@H]2CC[C@](O)(C(F)(F)F)CC2)nc(C(N)=O)c1N [Compound 835]	7.96				7.07

SMILES	pIC50 [1]	pIC50 ([2]; 2 h, 2 h compound incubation)	pIC50 ([2]; 2 h, 2 h incubation)	pIC50 ([2]; 2 h incubation)	pIC50 ([2]; 2 h, 2 hours with compound)
Cc1ccc(O)c(C)c1-c1cc(-c2cc(F)cc(F)c2)nc(C(N)=O)c1N [Compound 16, 3-amino-6-(3,5-difluorophenyl)-4-(3-hydroxy-2,6-dimethylphenyl)picolinamide]	8.30		6.24		
Cc1ccc2[nH]ncc2c1-c1nc(-c2cccnc2Nc2cccc(C(F)(F)F)c2)nc(C(N)=O)c1N [Compound 608]	7.54	5.86			
Cc1ccc(O)cc1-c1nc(-c2nccs2)nc(C(N)=O)c1N [Compound 3, 5-amino-6-(5-hydroxy-2-methylphenyl)-2-(thiazol-2-yl)pyrimidine-4-carboxamide]	7.68		6.25		
COCCOc1cccc(-c2cc(-c3c(C)ccc4[nH]ncc34)c(N)c(C(N)=O)n2)n1 [Compound 245]	8.00		6.27		
Cc1ccc(O)c(C)c1-c1cc(-c2ccnnc2)nc(C(N)=O)c1N [Compound 63]	8.30			7.40	
Cc1ccc2[nH]ncc2c1-c1nc(-c2ccccc2C(C)O)nc(C(N)=O)c1N (centres unmarked) [Compound 787]	8.40	6.56			
Cc1ccc2[nH]ncc2c1-c1nc(-c2cc(F)c(F)cc2NC(=O)C2(C(F)(F)F)CC2)nc(C(N)=O)c1N [Compound 471]	7.80	6.58			
Cc1ccc(O)c(C)c1-c1cc(-c2ccncn2)nc(C(N)=O)c1N [Compound 79]	8.10			7.05	
Cc1ccc2[nH]ncc2c1-c1cc(C(N)=O)nc(-c2cccnc2Nc2nc(F)ccc2F)n1 [Compound 499, 2-(2-((3,6-difluoropyridin-2-yl)amino)pyridin-3-yl)-6-(5-methyl-1H-indazol-4-yl)pyrimidine-4-carboxamide]	8.40	6.68			
Cc1ccc(O)c(C)c1-c1nc(-c2ccccc2NC(=O)C2(C)CC2)cc(C(N)=O)c1N [Compound 428]	8.52	7.59			
Cc1ccc2[nH]ncc2c1-c1nc(-c2ccc(F)cc2Nc2ncccc2C#N)nc(C(N)=O)c1N [Compound 613]	8.40	8.22			
CNS(=O)(=O)c1ccccc1-c1nc(C(N)=O)c(N)c(-c2c(C)ccc3[nH]ncc23)n1 [Compound 795]	5.60				< 5.00
Cc1ccc2[nH]ncc2c1-c1cc(-c2cccc(OCc3cccnn3)n2)nc(C(N)=O)c1N (atropisomer, axis not shown) [Compound 260]	8.40			6.78	
Cc1ccc2[nH]ncc2c1-c1cc(-c2cccc(OCC3(N)CC3)n2)nc(C(N)=O)c1N [Compound 353]	8.15		7.70		
CC[C@@H](COc1nccc(-c2cc(-c3c(C)ccc4[nH]ncc34)c(N)c(C(N)=O)n2)n1)OC (atropisomer, axis not shown) [Compound 334]	6.40		5.93		
Cc1ccc2[nH]ncc2c1-c1cc(-c2ccnc(OCCc3cc[nH]n3)n2)nc(C(N)=O)c1N [Compound 265]	8.40		6.41		
Cc1ccc2[nH]ncc2c1-c1nc(-c2ccncc2NC(=O)C(C)(C)C)nc(C(N)=O)c1N [Compound 483, 5-amino-6-(5-methyl-1H-indazol-4-yl)-2-(3-pivalamidopyridin-4-yl)pyrimidine-4-carboxamide]	8.70	8.70			
Cc1ccc2[nH]ncc2c1-c1cc(-c2ccnc(N[C@H](CO)c3ccccc3)n2)nc(C(N)=O)c1N (atropisomer, axis not shown) [Compound 371]	6.33		5.62		
COc1ccc(-c2cc(-c3c(C)ccc(O)c3C)c(N)c(C(N)=O)n2)nc1 [Compound 59]	8.40		7.23		
CCCc1ccccc1-c1nc(C(N)=O)c(N)c(-c2c(C)ccc3[nH]ncc23)n1 [Compound 796]	7.82				6.11
Cc1ccc2[nH]ncc2c1-c1cc(-c2cccnn2)nc(C(N)=O)c1N [Compound 191]	7.38		6.41		
